Data on one compound can be found in publication PMC10077338, “Galangin delivered by retinoic acid-modified nanoparticles targeted hepatic stellate cells for the treatment of hepatic fibrosis” (RSC Advances, 2023).

One data set has as its system aHSC. Set-up: method as in PMID 32893252. The note with it: cited from earlier work.
Data set [1] is described as follows: Pharmacokinetics after oral administration. Type of data set: in vivo, Sprague–Dawley rats. On the procedure: All animal procedures were approved by the Animal Care and Use Committee of the Renmin Hospital of Wuhan University (Laboratory Animal Welfare and Ethics Committee [Institutional Animal Care and Use Committee] Issue No.: WDRM NO.20200501). […] Free GA, GA-NPs, and RA-GA-NPs were orally administered (GA concentration: 50 mg kg^−1). Subsequently, 200 μL of blood were collected at predetermined time points (i.e., 0.5, 1, 2, 4, 6, 8, 10, 12, and 24 h). The concentrations of GA in plasma were determined by HPLC. Plasma samples (200 μL) were extracted using 200 μL of acetonitrile, vortexed for 10 min, and centrifuged at 5000 rpm for 5 min. Thereafter, the supernatant was collected and filtered using a 0.45 μm nylon 66 membrane. Finally, each sample (20 μL) was injected into the HPLC system.

Another data set relates to HF model induced by CCl4. Put plainly: Anti-HF effect in vivo. Set-up: species or system C57BL/6 mice. The settings on record: 20 mg kg^−1 oral daily for 4 weeks, CCl4 mice. On the procedure: Forty 6 weeks-old male C57BL/6 mice (weight: 20 ± 2 g; […]) were randomly divided into five groups (n = 8 per group): control; tetrachloromethane (CCl4)-treated; free GA; GA-NPs; and RA-GA-NPs. The HF model was induced by intraperitoneal injection with 10% CCl4 (diluted in olive oil, 5 mL per kg body weight) thrice per week for 4 consecutive weeks.[33–35] The control mice received an intraperitoneal injection with an equal volume of olive oil. The mice in all treatment groups received an injection with CCl4 for 4 weeks, as well as free GA, GA-NPs, or RA-GA-NPs (20 mg kg^−1) through oral administration once daily for 4 weeks; the dose of GA was based on previous reports.[36,37] All mice were sacrificed 12 h after the last administration, and blood specimens were collected through retro-orbital bleeding. Serum was subsequently separated by centrifugation at 3500 rpm for 15 min at 4 °C and stored at −20 °C. […] is typically used to discriminate collagen fibers from tissues on histological slides. […] The levels of ALT, AST, and Hyp were determined using detection kits, respectively, according to the instructions provided by the manufacturer. In addition, the serum levels of markers, HA, LN, PC III, and Col IV were determined using ELISA kits based on the respective protocols.

The mark [2] stands for this setting: both sexes, Sprague-Dawley, rat, plasma, GA 50 mg kg^−1, n = 6.

As to `O=c1c(O)c(-c2ccccc2)oc2cc(O)cc(O)c12` [Free GA, 3,5,7-trihydroxyflavone], the “concentration at which inhibition of aHSC in vitro was initiated” value in the data set with aHSC is 6 µg/mL. For the same compound, in data set [1] (GA 50 mg kg^−1, n = 6), the AUC was 2.58 ± 0.47 µg·h/mL, the CL is 3.99 ± 0.73 (mg kg^−1)/h(μg mL^−1) and the V d turned out to be 20.98 ± 4.22 L/kg. Besides, in data set [1] (GA 50 mg kg^−1, sampling up to 24 h), the “time for which serum drug concentrations were detected / maintained” value is “up to 12 h”. In data set [1] (setting [2]), this compound showed an MRT of 5.25 ± 0.16 h and a half-life of 3.64 ± 0.11 h. Besides, the “effect on the biomarkers of HF (HA, LN, PC III, Col IV)” value in the data set on HF model induced by CCl4 is given as “modest anti-fibrotic effect”.
